Data reported in ChEMBL document CHEMBL4130387, “Design, synthesis and in vivo study of novel pyrrolidine-based 11β-HSD1 inhibitors for age-related cognitive dysfunction” (Eur J Med Chem, 2017).
Each block holds one compound with its values, some of them ahead of it. Activity calls are given as the source filed them. The calls are words filed in the database; no cut-off is given here.

Experiments:
[1] = Stability in human liver microsomes at 10 uM after 30 mins by LC-MS/MS analysis; format: ADME, microsome; settings: read-out: Stability
[2] = target: T1, 11-beta-hydroxysteroid dehydrogenase type 2 (Homo sapiens) (UniProt P80365); experiment: Inhibition of human full-length 11beta-HSD2 expressed in HEK293 cells at 10 uM using cortisol as substrate after 2 hrs by LC-MS analysis relative to control; format: cell-based
T1 sequence (whole entry): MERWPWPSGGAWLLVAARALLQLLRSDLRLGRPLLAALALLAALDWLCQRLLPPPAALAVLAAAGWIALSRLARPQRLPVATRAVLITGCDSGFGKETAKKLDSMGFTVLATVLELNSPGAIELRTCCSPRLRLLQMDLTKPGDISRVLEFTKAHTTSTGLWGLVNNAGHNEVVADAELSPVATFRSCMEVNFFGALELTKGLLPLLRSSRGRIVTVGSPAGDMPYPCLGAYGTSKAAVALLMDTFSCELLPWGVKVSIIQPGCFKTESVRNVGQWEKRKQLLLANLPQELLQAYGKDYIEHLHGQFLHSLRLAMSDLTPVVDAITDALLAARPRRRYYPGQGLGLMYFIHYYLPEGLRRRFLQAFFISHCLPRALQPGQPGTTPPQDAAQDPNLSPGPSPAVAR

[3] = target: 11-beta-hydroxysteroid dehydrogenase 1 (Homo sapiens, UniProt P28845); experiment: Inhibition of 11beta-HSD1 in human liver microsomes using [3H]cortisone as substrate preincubated for 15 mins followed by substrate addition and measured after 30 mins by scintillation proximity assay
[4] = target: T2, 11-beta-hydroxysteroid dehydrogenase type 2 (Homo sapiens, UniProt P80365); experiment: Inhibition of human full-length 11beta-HSD2 expressed in HEK293 cells using cortisol as substrate after 2 hrs by LC-MS analysis; format: cell-based
T2 sequence (P80365 whole entry): T1 sequence (whole entry)

[5] = Effective permeability by PAMPA; format: ADME; settings: read-out: Peff
[6] = Apparent half-life of the terminal disposition phase in CD1 mouse at 21 mg/kg, po by UPLC-MS/MS analysis; format: ADME, organism-based; settings: in vivo, read-out: t1/2 lambda z (converted)
[7] = system: Mus musculus; experiment: Effect on pre-APP protein levels in SAMP8 mouse brain at 21 mg/kg, po for 4 days by Western blot analysis; format: functional, organism-based
[8] = system: Mus musculus; experiment: Downregulation of iNOS mRNA levels in SAMP8 mouse at 21 mg/kg, po for 4 days by qRT-PCR analysis; format: functional, organism-based
[9] = system: Mus musculus; experiment: Effect on pre-APP mRNA levels in SAMP8 mouse brain at 21 mg/kg, po for 4 days by qRT-PCR analysis; format: functional, organism-based
[10] = Apparent oral clearance in CD1 mouse at 21 mg/kg, po by UPLC-MS/MS analysis; format: ADME, organism-based; settings: in vivo
[11] = Tmax in CD1 mouse at 21 mg/kg, po by UPLC-MS/MS analysis; format: ADME, organism-based; settings: in vivo
[12] = Plasma concentration in CD1 mouse at 21 mg/kg, po after 3 hrs by UPLC-MS/MS analysis; format: ADME, organism-based
[13] = system: Mus musculus; experiment: Upregulation of IDE protein levels in SAMP8 mouse brain at 21 mg/kg, po for 4 days by Western blot analysis; format: functional, organism-based
[14] = system: Mus musculus; experiment: Effect on Bace1 mRNA levels in SAMP8 mouse brain at 21 mg/kg, po for 4 days by qRT-PCR analysis; format: functional, organism-based
[15] = Plasma concentration in CD1 mouse at 21 mg/kg, po after 1 hr by UPLC-MS/MS analysis; format: ADME, organism-based
[16] = Ratio of plasma concentration in CD1 mouse at 21 mg/kg, po after 0.5 hrs by UPLC-MS/MS analysis to IC50 for inhibition of 11beta-HSD1 in human liver microsomes; format: organism-based; settings: in vivo
[17] = Cmax in CD1 mouse at 21 mg/kg, po by UPLC-MS/MS analysis; format: ADME, organism-based; set-up: dose 21 mg/kg, route oral; settings: in vivo
[18] = Stability in mouse liver microsomes at 10 uM after 30 mins by LC-MS/MS analysis; format: ADME, microsome; settings: read-out: Stability
[19] = Plasma concentration in CD1 mouse at 21 mg/kg, po after 5 hrs by UPLC-MS/MS analysis; format: ADME, organism-based
[20] = AUC (infinity) in CD1 mouse at 21 mg/kg, po by UPLC-MS/MS analysis; format: ADME, organism-based; set-up: dose 21 mg/kg, time infinity, route oral; settings: in vivo
[21] = system: Mus musculus; experiment: Downregulation of IL-6 mRNA levels in SAMP8 mouse at 21 mg/kg, po for 4 days by qRT-PCR analysis; format: functional, organism-based
[22] = system: Mus musculus; experiment: Effect on ADAM10 mRNA levels in SAMP8 mouse brain at 21 mg/kg, po for 4 days by qRT-PCR analysis; format: functional, organism-based
[23] = system: Mus musculus; experiment: Cognitive enhancing effect in SAMP8 mouse assessed as prevention of short-term memory deficits by measuring time spent on exploring novel objects at 21 mg/kg, po for 4 days and measured during 10 mins retention trial after 24 hrs by novel object recognition test; format: functional, organism-based
[24] = system: Mus musculus; experiment: Dose normalized AUC (infinity) in CD1 mouse at 21 mg/kg, po by UPLC-MS/MS analysis; format: ADME, organism-based; settings: in vivo
[25] = system: Mus musculus; experiment: Extrapolated AUC in CD1 mouse at 21 mg/kg, po by UPLC-MS/MS analysis; format: ADME, organism-based; settings: in vivo
[26] = system: Mus musculus; experiment: Dose normalized Cmax in CD1 mouse at 21 mg/kg, po by UPLC-MS/MS analysis; format: ADME, organism-based; settings: in vivo
[27] = AUClast in CD1 mouse at 21 mg/kg, po by UPLC-MS/MS analysis; format: ADME, organism-based; set-up: dose 21 mg/kg, time 0 - last, route oral; settings: in vivo
[28] = Drug uptake in CD1 mouse brain at 21 mg/kg, po after 3 hrs by UPLC-MS/MS analysis; format: ADME, organism-based; settings: read-out: Drug uptake
[29] = system: Mus musculus; experiment: Cognitive enhancing effect in SAMP8 mouse assessed as prevention of short-term memory deficits by measuring time spent on exploring novel objects at 21 mg/kg, po for 4 days and measured during 10 mins retention trial after 2 hrs by novel object recognition test; format: functional, organism-based
[30] = system: Mus musculus; experiment: Upregulation of PSD95 mRNA levels in SAMP8 mouse at 21 mg/kg, po for 4 days by qRT-PCR analysis; format: functional, organism-based
[31] = Apparent volume of distribution during terminal phase in CD1 mouse at 21 mg/kg, po by UPLC-MS/MS analysis; format: ADME, organism-based; settings: in vivo, read-out: Vz/F
[32] = Elimination rate constant in CD1 mouse at 21 mg/kg, po by UPLC-MS/MS analysis; format: ADME, organism-based; settings: in vivo
[33] = Plasma concentration in CD1 mouse at 21 mg/kg, po after 0.5 hrs by UPLC-MS/MS analysis; format: ADME, organism-based
[34] = target: 11-beta-hydroxysteroid dehydrogenase 1 (Mus musculus, UniProt P50172); experiment: Inhibition of 11beta-HSD1 in CD1 mouse liver microsomes using cortisone as substrate preincubated for 15 mins followed by substrate addition and measured after 30 mins by LC-MS analysis
[35] = system: Mus musculus; experiment: Downregulation of APP beta-secretase C-terminal fragment protein levels in SAMP8 mouse brain at 21 mg/kg, po for 4 days by Western blot analysis; format: functional, organism-based

Sequence of 11-beta-hydroxysteroid dehydrogenase 1 (Homo sapiens, UniProt P28845) (P28845 whole entry): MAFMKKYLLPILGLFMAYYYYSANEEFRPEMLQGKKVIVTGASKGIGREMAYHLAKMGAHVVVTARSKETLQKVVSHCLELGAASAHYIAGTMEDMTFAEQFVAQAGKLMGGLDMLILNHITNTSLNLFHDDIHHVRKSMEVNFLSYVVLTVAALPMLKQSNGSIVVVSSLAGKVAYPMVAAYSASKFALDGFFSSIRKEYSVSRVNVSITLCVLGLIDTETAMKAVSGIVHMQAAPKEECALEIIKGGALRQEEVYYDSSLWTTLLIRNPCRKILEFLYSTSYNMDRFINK
Sequence of 11-beta-hydroxysteroid dehydrogenase 1 (Mus musculus, UniProt P50172) (P50172 whole entry, the tested form may be a part): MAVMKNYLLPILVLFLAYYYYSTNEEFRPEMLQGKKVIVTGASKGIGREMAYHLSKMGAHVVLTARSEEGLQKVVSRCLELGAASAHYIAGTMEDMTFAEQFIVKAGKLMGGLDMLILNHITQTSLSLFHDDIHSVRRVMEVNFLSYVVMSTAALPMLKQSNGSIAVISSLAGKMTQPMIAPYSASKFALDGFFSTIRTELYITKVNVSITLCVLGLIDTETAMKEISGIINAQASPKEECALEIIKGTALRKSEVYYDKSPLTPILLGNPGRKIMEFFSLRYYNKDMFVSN

Structure (SMILES): CCN1CCC[C@@H]1C(=O)NC1C2CC3CC(C2)CC1C3 (some centres not stated)
remaining at 0.5 h, 10 µM [1]: 79% | inhibition [2]: 88%

Structure (SMILES): O=C(C1CCCCC1)N1CC23CC=CCC2(CC=CC3)C1 (configuration not stated)
inhibition [2]: 100% | IC50 [3]: 40 nM

Structure (SMILES): O=C(C1CCCCC1)N1CC2C3CCC(C3)C2C1 (configuration not stated)
remaining at 0.5 h, 10 µM [1]: 37% | IC50 [4]: < 100 nM | IC50 [3]: 90 nM | Papp [5]: 5.2 ×10⁻⁶ cm/s

Structure (SMILES): O=C(C1CCCCC1)N1CC2C3C=CC(C3)C2C1 (configuration not stated)
remaining at 0.5 h, 10 µM [1]: 60% | IC50 [4]: < 100 nM | IC50 [3]: 20 nM

The next lines start with results.

remaining at 0.5 h, 10 µM [1]: 27% | IC50 [4]: 1000 to 10000 nM | IC50 [3]: 20 nM
Structure (SMILES): O=C(C1CCCCC1)N1CC2C3C=CC(C4CC34)C2C1 (configuration not stated)

remaining at 0.5 h, 10 µM [1]: 17% | IC50 [4]: 100 to 1000 nM | IC50 [3]: 20 nM
Structure (SMILES): O=C(C1CCCCC1)N1CC2C3CCC(CC3)C2C1 (configuration not stated)

half-life [6]: 46.3 min | remaining at 0.5 h, 10 µM [1]: 94% | CL/F [10]: 525 L/h/kg | Tmax [11]: 30 min | concentration at 3 h [12]: 2.12 ng/mL | concentration at 1 h [15]: 10.3 ng/mL | Ratio [16]: 5 | Cmax [17]: 44.6 ng/mL | remaining at 0.5 h, 10 µM [18]: 93% | IC50 [4]: < 100 nM | IC50 [3]: 30 nM | concentration at 5 h [19]: 0.28 ng/mL | AUC(0-inf) [20]: 40 ng·h/mL | Papp [5]: > 30 ×10⁻⁶ cm/s | AUC/dose [24]: 1.906 kg·ng·h/mL/mg | %AUCextra [25]: 0.787% | Cmax/dose [26]: 2.123 kg·ng/mL/mg | AUC(0-t) [27]: 39.7 ng·h/mL | concentration at 3 h [28]: 1.45 ng/mL | Vd/F [31]: 583 L/kg | k el [32]: 0.00025 s⁻¹ | concentration at 0.5 h [33]: 44.6 ng/mL | IC50 [34]: 80 nM
Structure (SMILES): O=C(C1CCCCC1)N1CC2C3CCC(C4CC34)C2C1 (configuration not stated)
Activity [7]: inactive | Activity [8]: Active | Activity [9]: inactive | Activity [13]: Active | Activity [14]: inactive | Activity [21]: Active | Activity [22]: inactive | Activity [23]: Active | Activity [29]: Active | Activity [30]: Active | Activity [35]: Active

remaining at 0.5 h, 10 µM [1]: 44%
Structure (SMILES): O=C(C1CCCCC1)N1CC2C3C=CC(CC3)C2C1 (configuration not stated)
